# Assay results from patent US20260373119A1, “NOVEL COMPOUND, AND COMPOSITION FOR PREVENTING OR TREATING HER2-POSITIVE CANCER, COMPRISING SAME” (EWHA UNIVERSITY - INDUSTRY COLLABORATION FOUNDATION, priority 2022, published 2026).
# What was measured:
# [1] = molecular target: T1, ELF3-MED23 protein-protein interaction (Homo sapiens, UniProt Q9ULK4); settings: cited from earlier work; for PPI inhibitory activity relative to gefitinib: ELF3-MED23 PPI
# T1 construct: followed by the addition of either the candidate compound or MED23 protein constructs; endogenous in cells; host or cells: 293T kidney cells (MED23 endogenous; GAL4-ELF3 transfected)
# T1 sequence (Q9ULK4 1-1368): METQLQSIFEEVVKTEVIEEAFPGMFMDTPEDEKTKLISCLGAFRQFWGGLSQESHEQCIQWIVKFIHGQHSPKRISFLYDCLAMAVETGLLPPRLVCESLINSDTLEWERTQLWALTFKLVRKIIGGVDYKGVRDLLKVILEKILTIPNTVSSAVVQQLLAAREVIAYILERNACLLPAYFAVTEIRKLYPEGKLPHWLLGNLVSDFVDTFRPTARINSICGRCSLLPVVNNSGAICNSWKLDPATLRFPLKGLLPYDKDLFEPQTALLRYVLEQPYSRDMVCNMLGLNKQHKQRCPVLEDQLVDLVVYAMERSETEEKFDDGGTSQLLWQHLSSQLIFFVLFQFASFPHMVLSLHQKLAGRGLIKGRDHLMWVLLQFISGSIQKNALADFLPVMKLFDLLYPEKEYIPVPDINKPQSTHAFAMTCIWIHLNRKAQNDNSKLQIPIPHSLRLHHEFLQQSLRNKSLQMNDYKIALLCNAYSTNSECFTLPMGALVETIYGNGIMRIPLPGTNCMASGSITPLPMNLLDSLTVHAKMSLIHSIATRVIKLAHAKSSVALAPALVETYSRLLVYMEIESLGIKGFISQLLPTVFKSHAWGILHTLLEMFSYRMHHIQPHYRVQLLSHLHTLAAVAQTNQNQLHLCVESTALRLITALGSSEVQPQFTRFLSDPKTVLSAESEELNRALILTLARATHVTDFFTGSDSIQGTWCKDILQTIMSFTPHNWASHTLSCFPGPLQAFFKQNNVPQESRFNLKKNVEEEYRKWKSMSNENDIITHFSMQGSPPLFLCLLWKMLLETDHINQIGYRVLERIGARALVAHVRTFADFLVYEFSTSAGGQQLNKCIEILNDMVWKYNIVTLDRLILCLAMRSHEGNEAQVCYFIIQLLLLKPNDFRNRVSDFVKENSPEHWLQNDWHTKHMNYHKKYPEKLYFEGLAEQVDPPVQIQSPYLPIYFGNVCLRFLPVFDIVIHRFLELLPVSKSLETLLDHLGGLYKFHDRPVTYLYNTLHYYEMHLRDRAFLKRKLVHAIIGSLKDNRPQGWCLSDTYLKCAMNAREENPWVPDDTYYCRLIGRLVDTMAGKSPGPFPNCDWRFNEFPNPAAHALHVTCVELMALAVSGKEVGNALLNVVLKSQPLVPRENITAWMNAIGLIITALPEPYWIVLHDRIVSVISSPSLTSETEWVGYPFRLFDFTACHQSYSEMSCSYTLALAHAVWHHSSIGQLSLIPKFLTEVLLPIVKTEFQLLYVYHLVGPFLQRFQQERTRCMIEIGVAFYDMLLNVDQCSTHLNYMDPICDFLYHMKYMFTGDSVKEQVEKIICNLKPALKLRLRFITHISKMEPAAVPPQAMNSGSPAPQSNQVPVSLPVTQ
# [2] = molecular target: T1, ELF3-MED23 protein-protein interaction; assay: SEAP reporter assay, ELF3-MED23 PPI inhibition (293T kidney cells); format: cell-based; settings: 10 μM; for inhibition at 10 µM: HEK-293T
# Procedure: To verify whether the D400 and H449 residues play a critical role in the ELF3-MED23 protein-protein interaction, a SEAP assay was performed. Specifically, 293T kidney cells were seeded at a density of 5×10^3 cells/well in a 96-well microplate (SPL, Korea) and cultured overnight. Subsequently, the cells were co-transfected with 100 ng of each plasmid using transfection-optimized medium (Welgene, Korea). The plasmids used included the SEAP reporter gene (pG5IL2SX) and GAL4-ELF3 expression vector (pBJ GAL4-ELF3). For transfection, the cells were incubated with WelFectQ (Welgene, Korea) for 3 hours, followed by the addition of either the candidate compound or MED23 protein constructs (pcDNA MED23^WT, K397A, D400A, H449G, and D400A/H449G). The treated cells were incubated for 12 hours. The candidate compound was added in an incubator at 5% CO2 and 37 °C, and the plate was incubated at 65 °C for 3 hours to inactivate all enzymes except SEAP (Secreted Alkaline Phosphatase). A mixture comprising 100 μL of substrate solution prepared with 1.19 μL of 0.1 M 4-methylumbelliferyl phosphate (Sigma, USA), 25 μL of inactivated medium, and 75 μL of double-distilled water was added, followed by the addition of 98.81 μL of 2 M diethanolamine (pH 10, Sigma, USA). The plate was incubated overnight at 37 °C. Subsequently, the fluorescence intensity was measured using a fluorometer (SPECTRAmax […], Molecular Devices, USA) at an excitation wavelength of 360 nm and an emission wavelength of 440 nm.
# To further elaborate on the above findings, small molecule compounds that could affect the ELF3-MED23 PPI were designed and synthesized. Specifically, non-essential side chains were removed from gefitnib, and compounds were designed to include both hydrogen bond donors and acceptors for the D400 and H449 residues of MED23, respectively (FIG. 4A). Specifically, chalcones and pyrazolines were selected as core scaffolds, and 25 compounds (11 chalcones and 14 pyrazoline-based compounds) were prepared. The ELF3-MED23 PPI inhibitory activity of all prepared compounds was measured using a SEAP assay.
# [3] = tested on: T47D (HER2-negative breast cancer cell line); assay: antiproliferative effect, T47D; format: cell-based; settings: Homo sapiens, 72 hours
# Procedure: (§1) The antiproliferative effects were measured after treating Compounds 1 to 22 for 72 hours on HCT15 (HER2-positive colorectal cancer cell line), NCI-N87 (HER2-positive gastric cancer cell line), T47D (HER2-negative breast cancer cell line), and HeLa (HER2-negative cervical cancer cell line). As a result, strong antiproliferative effects were generally observed in the NCI-N87 cell line (Table 2).
# (§2) The antiproliferative effects of the candidate compound, resulting from HER2 inhibition, were evaluated. Specifically, to confirm the anticancer effects of the candidate compound, cancer cells were seeded at a density of 10^4 cells/well in a 96-well cell culture plate for 20 hours. The cells were starved in serum-free media for 4 hours, followed by replacement with media containing the compound at specified concentrations. The cells were then incubated for 72 hours under conditions of 5% CO2 at 37 °C. Cell viability was determined by adding 5 μL of EZ-CytoX to each well and measuring absorbance at 450 nm. The measurements were performed using an ELISA Microplate Reader (VersaMax, Molecular Devices).
# [4] = tested on: NCI-N87 (HER2-positive gastric cancer cell line); assay: antiproliferative effect, NCI-N87; format: cell-based; settings: Homo sapiens, NCI-N87; 72 hours; HER2-positive
# Procedure: as §1, §2
# [5] = tested on: HCT15 (HER2-positive colorectal cancer cell line); assay: antiproliferative effect, HCT15; format: cell-based; settings: Homo sapiens, HCT-15, 72 hours
# Procedure: as §1, §2
# [6] = tested on: HeLa (HER2-negative cervical cancer cell line); assay: antiproliferative effect, HeLa; format: cell-based; settings: Homo sapiens, 72 hours
# Procedure: as §1, §2
# [7] = molecular target: T2, (His)6-MED23391-582 / FITC-ELF3129-145 peptide (Homo sapiens, UniProt Q9ULK4); assay: fluorescence polarization displacement assay; format: binding; settings: 80 nM (His)6-MED23391-582, 10 nM FITC-ELF3129-145; Cheng-Prusoff; read-out: PPI inhibitory activity calculated based on Ki value
# T2 construct: 391-582 and fluorescein isothiocyanate (FITC)-labeled
# T2 sequence (Q9ULK4 391-582 limits assumed): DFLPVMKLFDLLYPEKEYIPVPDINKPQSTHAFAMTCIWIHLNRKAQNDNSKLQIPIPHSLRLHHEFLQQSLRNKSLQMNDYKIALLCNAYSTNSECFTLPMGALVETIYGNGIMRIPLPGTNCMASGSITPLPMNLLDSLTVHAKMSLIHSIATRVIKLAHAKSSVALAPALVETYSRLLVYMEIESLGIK
# Procedure: The samples, adjusted to a final volume of 50 μL, were incubated at room temperature for 30 minutes. Kd values were calculated using a least-squares non-linear fit method with Prism 6.0 software (GraphPad Software, USA). FP signals were measured in millipolarization (mP) units using an Infinite F200 PRO microplate reader (Tecan Group Ltd., Switzerland) at an excitation wavelength of 485 nm and an emission wavelength of 535 nm. For displacement analysis, graded concentrations of YK1 and unlabeled ELF3137-144 peptides were mixed with 80 nM (His) 6-MED23391-582 and 10 nM FITC-ELF3129-145.
# The effect of compound YK1 was confirmed by measuring the reduction in FP signals, using unlabeled peptides as a positive control. The IC50 of each compound was determined by fitting the data to a four-parameter logistic equation using the Table Curve 2D program (SPSS Inc.). The Ki value was calculated using the Cheng-Prusoff equation (Ki=IC50/1+([Ligand]/Kd))
Molecule,inhibition at 10 µM [2] [%],IC50 [3] [µM],IC50 [4] [µM],IC50 [5] [µM],IC50 [6] [µM],Ki [7] [µM],SEAP assay Inhibition (%) [2] [%],known ELF3-MED23 PPI inhibition [1],PPI inhibitory activity relative to gefitinib [1]
Cc1ccc(S(=O)(=O)n2ccc3c(OCC(O)CN(CCCCCN)C(=O)N4CCC(C5CCN(C(=O)C67CC8CC(CC(C8)C6)C7)CC5)CC4)cccc32)cc1 (stereo not drawn) [wrenchnolol],,,,,,,,inhibit ELF3-MED23 protein-protein interaction (PPI),
C=CC(=O)Nc1cc2c(Nc3ccc(F)c(Cl)c3)ncnc2cc1OCCCN1CCOCC1 [canertinib],,,,,,,,inhibit ELF3-MED23 protein-protein interaction (PPI),superior PPI inhibitory activity compared to gefitinib
"COc1ccc(/C=C/C(=O)c2ccccc2O)cc1 [Compound 6, 1-(2-Hydroxyphenyl)-3-(4-methoxyphenyl)-propenone]",90,> 50,44.9 ± 0.8,> 50,> 50,,,,
"COc1ccc(/C=C/C(=O)c2ccccc2O)c2ccccc12 [Compound 7, 1-(2-Hydroxyphenyl)-3-(4-methoxynaphthalen-1-yl)-propenone]",80,15.56 ± 0.15,11.4 ± 0.12,14.18 ± 0.05,16.13 ± 0.08,,,,
CC(C)N(CC(O)COc1cccc2[nH]ccc12)C(=O)N1CCC(C2CCN(C(=O)C34CC5CC(CC(C5)C3)C4)CC2)CC1 (stereo not drawn) [adamanolol],,,,,,,,inhibit ELF3-MED23 protein-protein interaction (PPI),
"COc1ccc(/C=C/C(=O)c2cccc(O)c2)cc1 [Compound 2, 1-(3-Hydroxyphenyl)-3-(4-methoxyphenyl)-propenone]",41,18.9 ± 0.2,10.7 ± 0.31,8.51 ± 0.01,9.85 ± 0.37,,,,
"O=C(/C=C/c1ccc(Cl)cc1)c1cccc(O)c1 [Compound 4, 3-(4-Chlorophenyl)-1-(3-hydroxyphenyl)-propenone]",80,17.57 ± 0.13,4.82 ± 0.1,12 ± 0.17,25.64 ± 0.09,,,,

# The next lines start with results.
inhibition at 10 µM [2] [%],IC50 [3] [µM],IC50 [4] [µM],IC50 [5] [µM],IC50 [6] [µM],Ki [7] [µM],SEAP assay Inhibition (%) [2] [%],Molecule,known ELF3-MED23 PPI inhibition [1],PPI inhibitory activity relative to gefitinib [1]
85,,,,,,,"COc1cc2ncnc(Nc3ccc(F)c(Cl)c3)c2cc1OCCCN1CCOCC1 [Gefitinib, gefitinib, reference compound]",inhibit ELF3-MED23 protein-protein interaction (PPI),
63,> 50,> 50,40.3 ± 0.51,> 50,,,"COc1ccc(C2CC(c3ccccc3O)=NN2C(C)=O)cc1 (stereo not drawn) [Compound 22, 1-[3-(2-Hydroxyphenyl)-5-(4-methoxyphenyl)-4,5-dihydropyrazol-1-yl]-ethanone]",,
,,,,,0.78 ± 0.05,53,"ELF3137-144: ELF3137-144 peptide (8 a.a.), amino acids 137-144 of ELF3 (SWIIELLE; UniProt P78545 137-144, looked up, fragment) [reference compound]",,superior PPI inhibitory activity compared to gefitinib
58,> 50,> 50,> 50,> 50,,,"CC(=O)N1N=C(c2cccc(O)c2)CC1c1ccco1 (stereo not drawn) [Compound 12, 1-[5-Furan-2-yl-3-(3-hydroxyphenyl)-4,5-dihydropyrazol-1-yl]-ethanone]",,
50,> 50,> 50,> 50,42.19 ± 0.01,,,"O=C(/C=C/c1ccco1)c1ccccc1O [Compound 8, 3-Furan-2-yl-1-(2-hydroxyphenyl)-propenone]",,
37,> 50,> 50,> 50,> 50,,,"CC(=O)N1N=C(c2cccc(O)c2)CC1c1ccc(O)cc1 (stereo not drawn) [Compound 16, 1-[5-(4-Hydroxyphenyl)-3-(3-hydroxyphenyl)-4,5-dihydropyrazol-1-yl]-ethanone]",,
58,> 50,> 50,> 50,> 50,,,"COc1ccc(C2CC(c3cccc(O)c3)=NN2C(C)=O)cc1 (stereo not drawn) [Compound 13, 1-[3-(3-Hydroxyphenyl)-5-(4-methoxyphenyl)-4,5-dihydropyrazol-1-yl]-ethanone]",,
